Series [1] concerns the target T1, EXG1 (Saccharomyces cerevisiae, UniProt P23776).
T1 sequence (P23776 41-448): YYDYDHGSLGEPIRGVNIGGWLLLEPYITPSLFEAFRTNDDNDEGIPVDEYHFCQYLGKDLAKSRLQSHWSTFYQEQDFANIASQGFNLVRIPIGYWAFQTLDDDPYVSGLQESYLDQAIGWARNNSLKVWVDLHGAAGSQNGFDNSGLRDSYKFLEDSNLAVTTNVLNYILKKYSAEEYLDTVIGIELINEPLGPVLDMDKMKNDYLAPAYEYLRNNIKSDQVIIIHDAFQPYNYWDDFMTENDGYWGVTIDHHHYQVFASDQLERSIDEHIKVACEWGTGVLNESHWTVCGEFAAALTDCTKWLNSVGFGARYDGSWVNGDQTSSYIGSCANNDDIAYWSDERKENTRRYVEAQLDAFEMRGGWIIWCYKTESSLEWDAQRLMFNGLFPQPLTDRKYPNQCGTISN
Kind of series: Cleavage of glucose from resveratrol glucosides by broth enriched with EXG1. The note with it: 8 - EXG1 broth. It is filed as biochemical, S. cerevisiae.

Series [2] has as its system Depol™ cellulase (Biocatalysts). Kind of series: Cleavage of glucose from resveratrol glucosides by Depol cellulase. It is filed as biochemical. The note with it: 2 - Depol IFF (cellulase).
For series [3], the system named is recombinant β-glucosidase (GO16L, IFF). Kind of series: Cleavage of glucose from resveratrol glucosides by recombinant β-glucosidase. The conditions noted are these: 1 - β-glucosidase (IFF). It is filed as biochemical.
The test system of series [4] is β-galactosidase from A. oryzae. Kind of series: Cleavage of glucose from resveratrol glucosides by β-galactosidase. It is filed as biochemical. The conditions noted are these: 6 - β-galactosidase A. oryzae.
A further series concerns β-glucuronidase. Kind of series: Cleavage of glucose from resveratrol glucosides by β-glucuronidase. It is filed as biochemical. The note with it: 7 - β-glucuronidase.
The next series concerns Cellobiase from A. niger. It is filed as biochemical.
The next series relates to Cellulase T. reesei. It is filed as biochemical.
For series [5] the following is noted: mouse, in vivo.
For another series, the system named is Glusulase. Kind of series: Cleavage of glucose from resveratrol glucosides by Glusulase. The conditions noted are these: 4 - Glusulase. It is filed as biochemical.
A short description of series [6]: Solubility in water of purified compounds (H2O saturation, HPLC quantification). The note with it: for solubility at 1 min: water, thermodynamic from solid.
For series [7] the following is noted: in water; cited from earlier work.
The nature of series [8]: Pharmacokinetic profiling: plasma levels after single IV or oral administration. It is filed as in vivo, CD1 male mice.
Series [9] can be described thus: Separate experiment: plasma levels after single oral or IV administration, LC-MS. The conditions noted are these: for Plasma level of the administered compound after oral administration / Plasma level of the administered compound after IV administration: single dose 10 mL/kg, FIG. 21.
The test system of series [10] is EXG1. The experiment in a line: Cleavage of piceid by S. cerevisiae cells with or without EXG1. The note with it: second S. cerevisiae strain (lacking EXG1), 125 mg/L piceid, overnight.
Series [11] has as its target EXG1 (Saccharomyces cerevisiae, UniProt P23776). The description is as above. The note with it: S. cerevisiae cells with functional EXG1, 125 mg/L piceid, overnight.
The mark [12] stands for this setting: male, CD1, mouse, plasma, intravenous, 10 mg/kg.

Converted amounts (≈) assume the structure as drawn. Read-outs that look alike come from different tables or passages of the source.

As for “cis/trans-resveratrol-3,5-di-O-β-glucoside [3,5-resveratrol diglucoside]”, the “% cleavage in conditions tested” value on EXG1 [1] was “• (• = 5-49%)”; in series [2], “✓ (✓ = >95%)”; in series [3], “✓ (✓ = >95%)”; in series [4], “✓ (✓ = >95%)”; in the series on β-glucuronidase it was “✓ (✓ = >95%)”; with Cellobiase from A. niger, “✓ (key: ✓ = >95%; ♦ = 50-95%; • = 5-49%; X = 0%)”. For the same compound, the “% cleavage in conditions tested” value in the series on Cellulase T. reesei is “✓ (key: ✓ = >95%; ♦ = 50-95%; • = 5-49%; X = 0%)”; in the series on Glusulase it was “✓ (✓ = >95%)”. Moreover, the “Time of highest plasma level of administered compound, IV” value in series [5] (iv) is 1 h. Besides, the “Time within which plasma level declined, IV” value in [5] (iv) is reported as not above 4 h. The “Plasma level of the administered compound after oral administration” value (from here on “Plasma level … after oral administration”) in series [5] (po) is listed as “high levels”. Moreover, the “Time within which plasma level declined, oral” value in series [5] (po) is on record as not above 3 h.
Take `OC[C@H]1O[C@@H](Oc2ccc(/C=C/c3cc(O)cc(O[C@@H]4O[C@H](CO)[C@@H](O)[C@H](O)[C@H]4O)c3)cc2)[C@H](O)[C@@H](O)[C@@H]1O` (relative stereo) [3,4′-resveratrol diglucoside, trans-resveratrol-3,4′-di-O-β-glucoside]: the “% cleavage in conditions tested” value on EXG1 [1] is “♦ (♦ = 50-95%)”; in series [2] it was “✓ (✓ = >95%)”; in series [3], “✓ (✓ = >95%)”; in series [4], “✓ (✓ = >95%)”; in the series with β-glucuronidase it was “✓ (✓ = >95%)”; in the series on Cellobiase from A. niger, “✓ (key: ✓ = >95%; ♦ = 50-95%; • = 5-49%; X = 0%)”. Besides, the “% cleavage in conditions tested” value in the series on Cellulase T. reesei was “✓ (key: ✓ = >95%; ♦ = 50-95%; • = 5-49%; X = 0%)”; in the series with Glusulase, “✓ (✓ = >95%)”. The “Plasma level relative to 3,5-resveratrol diglucoside, oral” value in series [5] (po) is reported as “approximately 3 fold”. In series [5] (po), the “Time within which compound was cleared from plasma, oral” value is not above 1 h.
On to `OC[C@H]1O[C@@H](Oc2cc(O)cc(C=Cc3ccc(O)cc3)c2)[C@H](O)[C@@H](O)[C@@H]1O` [Piceid, resveratrol 3-O-β-D-glucopyranoside], for which the “% cleavage in conditions tested” value is “♦ (♦ = 50-95%)” at EXG1 [1]; “✓ (✓ = >95%)” in [2]; “✓ (✓ = >95%)” in series [3]; “✓ (✓ = >95%)” in [4]; “✓ (✓ = >95%)” with β-glucuronidase; “✓ (key: ✓ = >95%; ♦ = 50-95%; • = 5-49%; X = 0%)” with Cellobiase from A. niger. The “% cleavage in conditions tested” value in the series with Cellulase T. reesei is “✓ (key: ✓ = >95%; ♦ = 50-95%; • = 5-49%; X = 0%)”; in the series on Glusulase it was “✓ (✓ = >95%)”. Besides, the solubility (in general, the dissolved amount per volume that the medium holds) at 1 min in series [6] was in the range of 200 to 300 µg/mL (≈ 512 to 768 µM). In series [7], the “Solubility mg/L (Literatrure)” value is listed as 69 mg/L (≈ 177 µM). In series [8] (10 mg/kg IV), the “Detection of administered compound in plasma after IV administration” value was “detectable”. Also, in series [8] (10 mg/kg PO), the “Detection of administered compound in plasma after oral administration” value is listed as “detectable”. Also, the “Systemic conversion to trans-resveratrol” value in series [8] (after IV and oral administration) is given as “converted to trans-resveratrol systemically”. Moreover, in [8] (male, CD1, mouse, plasma, piceid 10 mg/kg IV, 0.25 h, read-out: Piceid (Detection of piceid) in plasma, IV), the concentration at 0.25 h came out at 2830 ng/mL. The concentration at 0.5 h came to 320 ng/mL in series [8] (male, CD1, mouse, plasma, piceid 10 mg/kg IV, 0.5 h, read-out: Piceid (Detection of piceid) in plasma, IV) and 5 ng/mL in series [8] (male, CD1, mouse, plasma, piceid 10 mg/kg PO, 0.5 h, read-out: Piceid (Detection of piceid) in plasma, PO). For the same compound, the concentration at 1 h in series [8] (male, CD1, mouse, plasma, piceid 10 mg/kg IV, read-out: Piceid (Detection of piceid) in plasma, IV) turned out to be 50 ng/mL; in [8] (male, CD1, mouse, plasma, piceid 10 mg/kg PO, read-out: Piceid (Detection of piceid) in plasma, PO), 8 ng/mL. Besides, the concentration at 2 h in [8] (male, CD1, mouse, plasma, piceid 10 mg/kg PO, 2 h, read-out: Piceid (Detection of piceid) in plasma, PO) is 4 ng/mL. Further, the “Plasma level … after oral administration” value in series [9] is given as “detected at a low level”. The “Piceid detected in plasma after IV administration” value in series [9] (piceid 17.1 mg/kg IV) is recorded as “approximately 900 ng/mL”. Also, the Piceid cleaved result with EXG1 [10] is recorded as “less than 0.5%”. In addition, at EXG1 [11], the “Piceid cleaved, yielding resveratrol” value is recorded as “approximately 25%”.
With `OC[C@H]1O[C@@H](Oc2ccc(/C=C/c3cc(O)cc(O)c3)cc2)[C@H](O)[C@@H](O)[C@@H]1O` (relative stereo) [Resveratroloside, trans-resveratrol-4′-O-β-glucoside], the “% cleavage in conditions tested” value on EXG1 [1] is recorded as “• (• = 5-49%)”; in series [2], “✓ (✓ = >95%)”; in series [3] it was “✓ (✓ = >95%)”; in series [4] it was “✓ (✓ = >95%)”; with β-glucuronidase, “✓ (✓ = >95%)”; in the series with Glusulase, “✓ (✓ = >95%)”. The “Solubility mg/L (in house)” value in [6] (in nanopure H2O, HPLC) is on record as 1,300 mg/L. Further, the “Plasma level of the administered compound after IV administration” value in [9] is given as “low”. Further, in series [9] (oral and IV administration), the “Plasma levels of resveratrol after administration of the glucoside” value is reported as “a sharp increase in resveratrol”. The “Plasma level … after oral administration” value in series [9] is listed as “low”.
`Oc1ccc(C=Cc2cc(O)cc(O)c2)cc1` [Resveratrol, 3,5,4′-trihydroxy-stilbene]: in [6], the solubility at 1 min is 30 to 40 µg/mL (≈ 131 to 175 µM). The “Solubility mg/L (Literatrure)” value in series [7] was 15 to 30 mg/L. Further, in [8] (setting [12]), the concentration at 0.25 h is 40 ng/mL and the concentration at 0.5 h came to 4 ng/mL. Besides, in series [9], the “Plasma level of the administered compound after IV administration” value is “an increase in resveratrol plasma levels appeared 4 h post-administration” and the “Plasma level … after oral administration” value is on record as “cleared quickly”.

The record behind these values is US20160215306A1 (priority 2013, published 2016).
